Test results as given in patent US6512123B2, “Tricyclic alkylhydroxamate derivatives” (Hoffmann-La Roche Inc., priority 2001, dated 2003).

Experiments:
[1] = test system: histone deacetylase (HDAC); test: HDAC inhibition screening assay using an aminocoumarin derivative of an omega-acetylated lysine as substrate; assay type: biochemical; conditions: compound concentration 10 nM
Description: To measure the inhibitory properties of the compounds of the invention, a screening assay was performed using an aminocoumarin derivative of an omega-acetylated lysine as substrate for the enzmye. This assay has been described in detail in the literature (Hoffmann, K., et al., Nucleic Acids Res. 27 (1999)2057-2058). Using the protocol described therein, there was measured the inhibitory effect of the compounds at a concentration of 10 nM.

Row | Inhibitory effect at 10 nM in % [1] | melting point | Compound
1 | 62% | – | O=C(CCCCCCCOc1ccc2c(c1)C(=O)c1ccccc1CO2)NO [Example 1, 8-(11-Oxo-6,1 1-Dihydro-dibenzo[b,e]oxepin-2-yloxy)-octanoic Acid Hydroxyamide]
2 | 79% | – | O=C(CCCCCCCOc1ccc2c(c1)C(O)c1ccccc1-2)NO (racemic) [Example 2, rac-8-(9-Hydroxy-9H-fluoren-2-yloxy)-octanoic Acid Hydroxyamide]
3 | 86% | – | O=C(CCCCCCCOc1ccc2c(c1)[nH]c1ccccc12)NO [Example 3, 8-(9H-Carbazol-2-yloxy)-octanoic Acid Hydroxyamide]
4 | 97% | – | O=C(CCCCCCCOc1cccc2[nH]c3ccccc3c12)NO [Example 4, 8-(9H-Carbazol-4-yloxy)-octanoic Acid Hydroxyamide]
5 | 80% | 192 °C | O=C(CCCCCOc1ccc2c(c1)[nH]c1ccccc12)NO [Example 6, 6-(9H-Carbazol-2-yloxy)-hexanoic Acid Hydroxyamide]
6 | 69% | – | O=C(CCCCOc1ccc2c(c1)[nH]c1ccccc12)NO [Example 7, 5-(9H-Carbazol-2-yloxy)-pentanoic Acid Hydroxyamide]
7 | 100% | 198 °C | O=C(CCCCCCOc1ccc2c(c1)[nH]c1ccccc12)NO [Example 5, 7-(9H-Carbazol-2-yloxy)-heptanoic Acid Hydroxyamide]
